Reference: patent US10159640B2, “Prebiotic oral care compositions containing amino acids” (COLGATE-PALMOLIVE COMPANY, priority 2013, dated 2018)

Experiments:
Assay in all cases: Biofilm growth assay in BHI, crystal violet
Assay type in all cases: cell-based
Conditions in all cases: control = 1
[1] = system: Actinomyces naeslundii
Procedure: (§1) The increase in biofilm formation of the tested bacteria in response to selected compounds (Met-Pro, Phe-Glu) was investigated by setting up biofilm growth assays in a nutritionally rich medium (brain heart infusion broth (BHI), Oxoid), over 48 hours. Late exponential growth phase liquid cultures were prepared by transferring the respective bacterium from blood agar plates to BHI and overnight incubation at 37° C. in an anaerobic atmosphere for A. viscosus, V. parvula, F. nucleatum, P. gingivalis, P. intermedia, T. forsythia, A. naeslundii, and C. sputigena, and in a 5% CO2 environment for S. salivarius, S. sanguinis, S. mitis, A. actinomycetemcomitans, S. mutans, and S. gordonii. Overnight cultures were transferred to BHI and adjusted to a concentration of 1×10^7 CFU/ml by measuring the optical density at 600 nm (OD600) (BioRad SmartSpec 3000). For each strain, 200 μl of the bacterial suspension was added to a 96-well plate containing 20 μl of the respective di-peptides. Final concentrations of the di-peptides were set to 5, 10, 20 and 25 μmol/ml. […] Additionally, for each bacterium tested, a background control, to correct for background staining, was added. This background control contained the bacterium tested and 0.03 weight % chlorhexidine, as an antiseptic. Plates were incubated as previously described. After 48 hrs the supernatant was removed from the wells of the plates. The wells were washed twice with 1×100 μL PBS (phosphate buffered saline), fixed for 20 minutes with 96% vol. ethanol (96% vol. solution in water) and the biofilm retained at the bottom of the wells was stained with 1 weight % crystal violet (1 weight % solution in water). The bound dye was dissolved with 5% vol. acetic acid (5% vol. solution in water). Quantification of the stained biofilm was performed by measuring the absorbance at 630 nm using a Multiskan Ascent microplate reader (Thermo Scientific).
(§2) The experiment was carried out on three different days (thus providing 3 biological replicas) and each day the experiment was carried out in quadruple (thus providing 4 technical replicas) for each combination of bacterium with dipeptide and for each control. For each day and for each combination, the average (mean) of the values obtained (as detailed above) for the four technical replicas was calculated to provide a single value for each combination on each day. The values shown in Tables 7 to 8, below, are the average (mean) of the three single values obtained for each combination of bacterium with dipeptide.

[2] = system: Actinomyces viscosus
Procedure: as §1, §2

[3] = system: Aggregatibacter actinomycetemcomitans
Procedure: as §1, §2

[4] = system: Capnocytophaga sputigena
Procedure: as §1, §2

[5] = system: Fusobacterium nucleatum
Procedure: as §1, §2

[6] = system: Porphyromonas gingivalis
Procedure: as §1, §2

[7] = system: Prevotella intermedia
Procedure: as §1, §2

[8] = system: Streptococcus gordonii
Procedure: as §1, §2

[9] = system: Streptococcus mitis
Procedure: as §1, §2

[10] = system: Streptococcus mutans
Procedure: as §1, §2

[11] = system: Streptococcus salivarius
Procedure: as §1, §2

[12] = system: Streptococcus sanguinis
Procedure: as §1, §2

[13] = system: Tannerella forsythia
Procedure: as §1, §2

[14] = system: Veillonella parvula
Procedure: as §1, §2

With Met-Pro the “biofilm growth: OD 630 nm (crystal violet) at 48 hrs divided by OD of control” value ([1]; 5 μmol/ml) was 1.1703, the “biofilm growth: OD 630 nm (crystal violet) at 48 hrs divided by OD of control” value ([1]; 10 μmol/ml) was 0.9986 and the “biofilm growth: OD 630 nm (crystal violet) at 48 hrs divided by OD of control” value ([1]; 20 μmol/ml) was 0.4130. For the same substance, the “biofilm growth: OD 630 nm (crystal violet) at 48 hrs divided by OD of control” value ([1]; 25 μmol/ml) was 0.1281, the “biofilm growth: OD 630 nm (crystal violet) at 48 hrs divided by OD of control” value ([2]; 5 μmol/ml) was 0.4286 and the “biofilm growth: OD 630 nm (crystal violet) at 48 hrs divided by OD of control” value ([2]; 10 μmol/ml) was 0.4021. The “biofilm growth: OD 630 nm (crystal violet) at 48 hrs divided by OD of control” value ([2]; 20 μmol/ml) was 0.1766, the “biofilm growth: OD 630 nm (crystal violet) at 48 hrs divided by OD of control” value ([2]; 25 μmol/ml) was 0.0355 and the “biofilm growth: OD 630 nm (crystal violet) at 48 hrs divided by OD of control” value ([3]; 5 μmol/ml) was 0.8177. The “biofilm growth: OD 630 nm (crystal violet) at 48 hrs divided by OD of control” value ([3]; 10 μmol/ml) was 0.5095, the “biofilm growth: OD 630 nm (crystal violet) at 48 hrs divided by OD of control” value ([3]; 20 μmol/ml) was 0.2556 and the “biofilm growth: OD 630 nm (crystal violet) at 48 hrs divided by OD of control” value ([3]; 25 μmol/ml) was 0.1103. For the same substance, the “biofilm growth: OD 630 nm (crystal violet) at 48 hrs divided by OD of control” value ([4]; 5 μmol/ml) was 0.2411, the “biofilm growth: OD 630 nm (crystal violet) at 48 hrs divided by OD of control” value ([4]; 10 μmol/ml) was 0.1949 and the “biofilm growth: OD 630 nm (crystal violet) at 48 hrs divided by OD of control” value ([4]; 20 μmol/ml) was 0.1660. The “biofilm growth: OD 630 nm (crystal violet) at 48 hrs divided by OD of control” value ([4]; 25 μmol/ml) was 0.0138, the “biofilm growth: OD 630 nm (crystal violet) at 48 hrs divided by OD of control” value ([5]; 5 μmol/ml) was 0.6087 and the “biofilm growth: OD 630 nm (crystal violet) at 48 hrs divided by OD of control” value ([5]; 10 μmol/ml) was 0.5568. For the same substance, the “biofilm growth: OD 630 nm (crystal violet) at 48 hrs divided by OD of control” value ([5]; 20 μmol/ml) was 0.6796, the “biofilm growth: OD 630 nm (crystal violet) at 48 hrs divided by OD of control” value ([5]; 25 μmol/ml) was 0.5216 and the “biofilm growth: OD 630 nm (crystal violet) at 48 hrs divided by OD of control” value ([6]; 5 μmol/ml) was 0.6831. For the same substance, the “biofilm growth: OD 630 nm (crystal violet) at 48 hrs divided by OD of control” value ([6]; 10 μmol/ml) was 0.7344, the “biofilm growth: OD 630 nm (crystal violet) at 48 hrs divided by OD of control” value ([6]; 20 μmol/ml) was 0.8922 and the “biofilm growth: OD 630 nm (crystal violet) at 48 hrs divided by OD of control” value ([6]; 25 μmol/ml) was 0.4990. The “biofilm growth: OD 630 nm (crystal violet) at 48 hrs divided by OD of control” value ([7]; 5 μmol/ml) was 1.2520, the “biofilm growth: OD 630 nm (crystal violet) at 48 hrs divided by OD of control” value ([7]; 10 μmol/ml) was 0.9773 and the “biofilm growth: OD 630 nm (crystal violet) at 48 hrs divided by OD of control” value ([7]; 20 μmol/ml) was 0.2095. The “biofilm growth: OD 630 nm (crystal violet) at 48 hrs divided by OD of control” value ([7]; 25 μmol/ml) was 0.1148, the “biofilm growth: OD 630 nm (crystal violet) at 48 hrs divided by OD of control” value ([8]; 5 μmol/ml) was 1.4212 and the “biofilm growth: OD 630 nm (crystal violet) at 48 hrs divided by OD of control” value ([8]; 10 μmol/ml) was 1.8572. For the same substance, the “biofilm growth: OD 630 nm (crystal violet) at 48 hrs divided by OD of control” value ([8]; 20 μmol/ml) was 1.6395, the “biofilm growth: OD 630 nm (crystal violet) at 48 hrs divided by OD of control” value ([8]; 25 μmol/ml) was 1.4372 and the “biofilm growth: OD 630 nm (crystal violet) at 48 hrs divided by OD of control” value ([9]; 5 μmol/ml) was 1.3974. The “biofilm growth: OD 630 nm (crystal violet) at 48 hrs divided by OD of control” value ([9]; 10 μmol/ml) was 1.4008, the “biofilm growth: OD 630 nm (crystal violet) at 48 hrs divided by OD of control” value ([9]; 20 μmol/ml) was 0.2959 and the “biofilm growth: OD 630 nm (crystal violet) at 48 hrs divided by OD of control” value ([9]; 25 μmol/ml) was 0.0464. The “biofilm growth: OD 630 nm (crystal violet) at 48 hrs divided by OD of control” value ([10]; 5 μmol/ml) was 0.0252, the “biofilm growth: OD 630 nm (crystal violet) at 48 hrs divided by OD of control” value ([10]; 10 μmol/ml) was 0.0118 and the “biofilm growth: OD 630 nm (crystal violet) at 48 hrs divided by OD of control” value ([10]; 20 μmol/ml) was 0.9625. For the same substance, the “biofilm growth: OD 630 nm (crystal violet) at 48 hrs divided by OD of control” value ([10]; 25 μmol/ml) was 1.3235, the “biofilm growth: OD 630 nm (crystal violet) at 48 hrs divided by OD of control” value ([11]; 5 μmol/ml) was 0.8003 and the “biofilm growth: OD 630 nm (crystal violet) at 48 hrs divided by OD of control” value ([11]; 10 μmol/ml) was 0.9847. For the same substance, the “biofilm growth: OD 630 nm (crystal violet) at 48 hrs divided by OD of control” value ([11]; 20 μmol/ml) was 1.0385, the “biofilm growth: OD 630 nm (crystal violet) at 48 hrs divided by OD of control” value ([11]; 25 μmol/ml) was 1.4734 and the “biofilm growth: OD 630 nm (crystal violet) at 48 hrs divided by OD of control” value ([12]; 5 μmol/ml) was 1.1768. The “biofilm growth: OD 630 nm (crystal violet) at 48 hrs divided by OD of control” value ([12]; 10 μmol/ml) was 1.7015, the “biofilm growth: OD 630 nm (crystal violet) at 48 hrs divided by OD of control” value ([12]; 20 μmol/ml) was 2.1767 and the “biofilm growth: OD 630 nm (crystal violet) at 48 hrs divided by OD of control” value ([12]; 25 μmol/ml) was 1.6580. For the same substance, the “biofilm growth: OD 630 nm (crystal violet) at 48 hrs divided by OD of control” value ([13]; 5 μmol/ml) was 0.4857, the “biofilm growth: OD 630 nm (crystal violet) at 48 hrs divided by OD of control” value ([13]; 10 μmol/ml) was 0.4691 and the “biofilm growth: OD 630 nm (crystal violet) at 48 hrs divided by OD of control” value ([13]; 20 μmol/ml) was 0.2726. The “biofilm growth: OD 630 nm (crystal violet) at 48 hrs divided by OD of control” value ([13]; 25 μmol/ml) was 0.1909, the “biofilm growth: OD 630 nm (crystal violet) at 48 hrs divided by OD of control” value ([14]; 5 μmol/ml) was 0.2845 and the “biofilm growth: OD 630 nm (crystal violet) at 48 hrs divided by OD of control” value ([14]; 10 μmol/ml) was 0.2886. The “biofilm growth: OD 630 nm (crystal violet) at 48 hrs divided by OD of control” value ([14]; 20 μmol/ml) was 0.1745 and the “biofilm growth: OD 630 nm (crystal violet) at 48 hrs divided by OD of control” value ([14]; 25 μmol/ml) was 0.2121.
